For data set [1], the system named is rabbit carotid artery. Description: Pulsed Doppler Signal Enhancement Rabbit Model (carotid artery). It counts as in vivo. The settings on record: Powder D, osmotic agent in mixture with nitrogen, injected dose 0.2 ml (ca. 1 mg dry powder per kg). As for the experimental part:
(§1) One ml of the resulting microbubble suspension was injected intravenously into an approximately 3 kg rabbit instrumented to monitor the Doppler ultrasound signal of its carotid artery. A 10 MHz flow cuff (Triton Technology Inc., San Diego, Calif.; model ES-10-20) connected to a System 6 Doppler flow module (Triton Technology Inc.) fed the RF Doppler signal to a LeCroy 9410 oscilloscope (LeCroy, Chestnut Ridge, N.Y.). The root mean square (RMS) voltage of the signal computed by the oscilloscope was transferred to a computer and the resultant curve fitted to obtain peak echogenic signal intensity and half-life of the microbubbles in blood. Signals before contrast were less than 0.1 volts RMS.
as §1, with “half-ife” for “half-life”
as §1, with “RF doppler” for “RF Doppler”, “obtain Peak” for “obtain peak”
100 mg samples of the spray-dried powder were placed in 10-ml vials and gassed by perfluoroether-air mixture repeated evacuation-gassing cycles with the help of a syringe needle equipped with a three-way valve. As the filling gases, perfluorodimethyl ether (85%, Exfluor Research, Austin, Tex.), perfluoro(methylethyl ether) (80%, Exfluor Research, Austin, Tex.), perfluoro(diethyl ether) (90%, Strem Chemicals, Newburyport, Mass.), n-perfluoropropane and n-perfluorobutane (97%, PCR Incorporated) were used. […] Their echogenic properties in vivo were evaluated using a Pulsed Doppler Signal Enhancement Rabbit Model as described in Example III.
After reconstituting the powder with 10 ml of water, the bubbles were formed. Their echogenic properties in vivo were evaluated using a Pulsed Doppler Signal Enhancement Rabbit Model, as described in Example III, with the difference that the injected dose was reduced to 0.2 ml (ca. 1 mg of dry powder per kg of rabbit). FIGS. 2a, 2b, and 2c compare the decay of ultrasound signal over time for different filling gases at close partial pressures. The data are arranged in pairs so that microbubble preparations comprising perfluoroethers (thick lines) are compared directly with their perfluorocarbon analogues (thin lines). From the graphs it is evident that perfluoroether-filled bubbles have a longer persistence in the bloodstream than their fluorocarbon analogues.

For data set [2] the following is noted: 25 degrees C.; literature, or if not there calculated with the model of Lawson et al.; cited from earlier work.
For data set [3], the system named is pig heart. Description: Second harmonic ultrasound imaging of the heart, pig model. It counts as in vivo, pigs. The settings on record: Powder D with osmotic agent-N2 mixture, 0.5 mL infused over 1 min via jugular vein. As to the method:
After reconstituting the powder with 10 ml of water, the bubbles were formed.
Anesthetized pigs (14-16 kg) were fitted with indwelling catheters in the femoral artery and femoral and jugular veins for hemodynamic monitoring and contrast agent administration. Parasternal short-axis cardiac images at the level of the papillary muscles were obtained using an HP Sonos 2500 Ultrasound machine. Images were acquired in the Second Harmonic mode with a wide bandwidth linear phased array probe emitting at 2 MHz and receiving at 4 MHz. Imaging was intermittent (gated), triggered at end-diastole of every cardiac cycle. 0.5 mnL of reconstituted contrast agent was diluted with 0.5 mL sterile saline and infused over 1 min via the jugular vein.
FIGS. 3, 4, and 5 show a time course of ultrasound images of the heart following intravenous administration of contrast agents. […] FIGS. 4 and 5 show ultrasound images of the same hearts one minute and six minutes after infusion with the respective contrast agents. FIGS. 3a, 4a, and 5a show the ultrasound images of the heart following intravenous administration of contrast agent stabilized by perfluoropolyether. FIGS. 3b, 4b, and 5b show the ultrasound images of the heart following intravenous administration of contrast agent stabilized by perfluorohexane.

The conditions of data set [4]: 25 degrees C.; first four values, as reported by Wilhelm, Battino and Wilcock; cited from earlier work.

`FC(F)(F)OC(F)(F)C(F)(F)OC(F)(F)C(F)(F)OC(F)(F)F` [CF3O(CF2CF2O)2CF3, perfluorodiglyme]: the “Time of decay of the Doppler signal to baseline, s, at ρF = 0.13 ± 0.03 atm” value (“Time of decay of the Doppler signal” below) in data set [1] is reported as greater than 1800 s. The “PF, sat9 atm (saturated vapor pressure)” value in data set [2] is reported as 0.20 atm.
As to `FC(F)(F)OC(F)(F)C(F)(F)OC(F)(F)C(F)(F)F` [CF3OC2F4OC2F5], the “PF, sat9 atm (saturated vapor pressure)” value in data set [2] is on record as 0.55 atm.
Consider `FC(F)(F)OC(F)(F)C(F)(F)OC(F)(F)F` [CF3OC2F4OCF3, perfluoromonoglyme], for which the “Time of decay of the Doppler signal” value in data set [1] is 400 s. In data set [2], the “PF, sat9 atm (saturated vapor pressure)” value is recorded as 1.16 atm.
Regarding `FC(F)(F)OC(F)(F)F` [CF3OCF3, perfluorodimethylether], in data set [2], the “PF, sat9 atm (saturated vapor pressure)” value is listed as 10.9 atm.
`FC(F)(F)OC(F)(F)OC(F)(F)OC(F)(F)OC(F)(F)F` [CF3—(OCF2)3OCF3]: the “Time of decay of the Doppler signal” value in data set [1] came out at 1200 s. In data set [3], the “contrast of the heart one minute after injection” value is reported as “Substantial contrast of the heart” and the “tissue contrast of the heart at six minutes” value is “still a great deal of tissue contrast”.
Regarding `FC(F)(F)F` [CF4], the “L × 10^6 (Ostwald coefficient)” value in data set [4] is on record as 5172. Moreover, in data set [2], the “PF, sat9 atm (saturated vapor pressure)” value is given as 159 atm.
For `FS(F)(F)(F)(F)F` [SF6], in data set [4], the “L × 10^6 (Ostwald coefficient)” value is listed as 5950. Besides, the “PF, sat9 atm (saturated vapor pressure)” value in data set [2] was 23.5 atm.
For the molecule `FC(F)(F)C(F)(F)OC(F)(F)C(F)(F)F` [Sample C2F5OC2F5, perfluorodiethylether], the “PF, sat9 atm (saturated vapor pressure)” value in data set [2] was 1.9 atm.
For the molecule `FC(F)(F)C(F)(F)F` [Sample C2F6, C2F6], the “PF, sat9 atm (saturated vapor pressure)” value in data set [2] was 26.2 atm.
Take `FC(F)(F)C(F)(F)C(F)(F)OC(F)(F)C(F)(F)C(F)(F)F` [Sample C3F7OC3F7, C3F7OC3F7]: the “PF, sat9 atm (saturated vapor pressure)” value in data set [2] is reported as 0.30 atm.
On to `O=O` [Sample O2, oxygen], for which the “L × 10^6 (Ostwald coefficient)” value in data set [4] is listed as 31110.
On to `FC(F)(F)C(F)(F)C(F)(F)F` [n-C3F8, n-perfluoropropane], for which the “PF, sat9 atm (saturated vapor pressure)” value in data set [2] is on record as 6.8 atm.
In the case of `FC(F)(F)C(F)(F)C(F)(F)C(F)(F)F` [n-C4F10, perfluorobutane], in data set [1], the “Time of decay of the Doppler signal” value is on record as 300 s. For the same molecule, in data set [2], the “PF, sat9 atm (saturated vapor pressure)” value is 2.2 atm.
Take `FC(F)(F)C(F)(F)C(F)(F)C(F)(F)C(F)(F)F` [n-C5F12, perfluoropentane]: the “Time of decay of the Doppler signal” value in data set [1] is given as 400 s. Further, in data set [2], the “PF, sat9 atm (saturated vapor pressure)” value is 0.84 atm.
For the molecule `FC(F)(F)C(F)(F)C(F)(F)C(F)(F)C(F)(F)C(F)(F)F` [n-C6F14, perfluorohexane], the “Time of decay of the Doppler signal” value in data set [1] is given as 600 s. Also, in data set [3], the “contrast of the heart one minute after injection” value is on record as “Substantial contrast of the heart” and the “tissue contrast of the heart at six minutes” value is “declined markedly”. The “PF, sat9 atm (saturated vapor pressure)” value in data set [2] is 0.27 atm.
For nitrogen [Sample N2], the “L × 10^6 (Ostwald coefficient)” value in data set [4] is 15880.

The values are drawn from US20030138380A1, “Gas emulsions stabilized with fluorinated ethers having low Ostwald coefficients” (priority 1995, published 2003).
